Assay results as given in ChEMBL document CHEMBL1152587, “Application of the McMurry coupling reaction in the synthesis of tri- and tetra-arylethylene analogues as potential cancer chemotherapeutic agents” (Bioorg Med Chem, 2009).

Experiments:
[1] = system: DU-145; experiment: Anticancer activity against human DU145 cells after 48 hrs by SRB assay; settings: DU-145, 48 h
[2] = Inhibition of bovine tubulin polymerization after 20 mins by turbidimetrically

GI50 [1] [nM]	IC50 [2] [nM]	Compound
2	–	COc1ccc(/C=C\c2cc(OC)c(OC)c(OC)c2)cc1O [COMBRETASTATIN A4]
–	> 40000	CC/C(=C(\c1ccccc1)c1ccc(OCCN(C)C)cc1)c1ccccc1 [TAMOXIFEN]
